The results in this text go back to ChEMBL document CHEMBL1126961, “The design and synthesis of kappa opioid ligands based on a binding model for kappa agonists” (Bioorg Med Chem Lett, 1993).

For test [1], the target named is T1, Kappa-type opioid receptor (Homo sapiens, UniProt P41145). The experiment in a line: Ratio of binding affinity against kappa opioid receptor to binding affinity against mu opioid receptor.
The target in test [2] is T1, Kappa-type opioid receptor. Briefly: Tested in vitro for binding affinity against Opioid receptor kappa 1.
A further test concerns the target Mu-type opioid receptor (Homo sapiens, UniProt P35372). Briefly: Tested in vitro for binding affinity against mu opioid receptor.

T1 sequence (P41145 whole entry): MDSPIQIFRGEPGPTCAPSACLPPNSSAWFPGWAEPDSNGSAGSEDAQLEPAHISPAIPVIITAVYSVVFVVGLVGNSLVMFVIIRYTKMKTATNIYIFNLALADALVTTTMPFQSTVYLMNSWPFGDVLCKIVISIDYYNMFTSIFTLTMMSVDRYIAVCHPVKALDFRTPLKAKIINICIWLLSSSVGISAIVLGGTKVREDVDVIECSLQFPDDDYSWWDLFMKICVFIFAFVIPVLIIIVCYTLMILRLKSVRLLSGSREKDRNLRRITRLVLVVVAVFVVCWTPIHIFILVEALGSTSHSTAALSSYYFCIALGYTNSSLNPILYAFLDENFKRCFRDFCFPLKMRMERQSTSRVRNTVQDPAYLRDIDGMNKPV
Mu-type opioid receptor, sequence (P35372 whole entry): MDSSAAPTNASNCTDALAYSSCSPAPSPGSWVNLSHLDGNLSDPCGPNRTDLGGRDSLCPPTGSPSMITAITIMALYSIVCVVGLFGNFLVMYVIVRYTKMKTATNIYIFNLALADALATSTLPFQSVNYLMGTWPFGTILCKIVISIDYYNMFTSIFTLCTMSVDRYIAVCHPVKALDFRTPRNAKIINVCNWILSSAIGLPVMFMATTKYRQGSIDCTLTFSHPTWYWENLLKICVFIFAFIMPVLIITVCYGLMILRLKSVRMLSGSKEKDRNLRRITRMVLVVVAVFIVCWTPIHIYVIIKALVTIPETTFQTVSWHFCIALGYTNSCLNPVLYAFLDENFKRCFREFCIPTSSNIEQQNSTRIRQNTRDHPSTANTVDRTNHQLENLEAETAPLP

Take `O=C(Cc1cccc2occc12)NCC12CCCN1CCC2`: in test [1], the Ratio turned out to be 3.5. The Ki (usually the dissociation constant of the complex between target and ligand, obtained from inhibition or displacement) in test [2] is 940 nM; at Mu-type opioid receptor, 3350 nM.

In the case of `CC[C@]12CCN(CC3CC3)[C@H](C(=O)c3ccc(O)cc31)[C@@H]2C`, at Mu-type opioid receptor, the affinity, expressed as Ki, was 1.02 nM.

Consider `CN(C(=O)Cc1c(OCCN2CCCC2)ccc2ccccc12)C1CCCCC1`, for which the Ratio in test [1] was more than 60. In addition, the Ki in test [2] is 160 nM; on Mu-type opioid receptor, more than 10000 nM.

As to `O=C1Cc2cccc(c2)OCCCCNCCN1`, the Ki (in test [2]; at Mu-type opioid receptor) was more than 10000 nM throughout.
